Publication PMC6646369, “A new bioavailable fenretinide formulation with antiproliferative, antimetabolic, and cytotoxic effects on solid tumors” (Cell Death & Disease, 2019)
≈ marks a conversion by molar mass, not a printed value.

Experiments:
[1] = Aqueous solubility of fenretinide (saturation in water, spectrophotometric at 360 nm); type: physicochemical; conditions: water at 25 °C; read-out: Solubility in H2O
Experimental: The first step of NanoFEN preparation involved fenretinide salification to raise its aqueous solubility to the extent required for complexation with cyclodextrins. […] The complex was analyzed by ^1H-NMR to detect the presence of chemical shift changes with respect to the free drug as indicators of fenretinide inclusion into the cyclodextrin hydrophobic cavity. […] The ^1H-NMR spectra were recorded by an Inova 600 MHz High Resolution NMR Spectrometer. The amount of fenretinide incorporated into the complex was spectrophotometrically determined in solutions obtained by dissolving known amounts of the solid complex in a water:ethanol (1:1, v-v) mixture with the aim to dissociate the drug from the complex and maintain its solubilization in the aqueous phase in the presence of ethanol. The hydro-alcoholic solutions were analyzed for their fenretinide content at the maximum wavelength of the fenretinide absorption (360 nm). The aqueous solubility of fenretinide complexed with 2-hydroxypropyl-β-cyclodextrin was measured in comparison with the pure drug. […] After filtration the saturated solutions were spectrophotometrically analysed at 360 nm for their fenretinide content.

[2] = Plasma pharmacokinetics of fenretinide in mice; type: in vivo, CD1 female mice
Experimental: The experiments were performed in CD1 female mice, 7 weeks of age, (body weight 25 ± 2 g) obtained from Envigo RMS SrL (Udine, Italy). Mice were maintained under specific-pathogen-free conditions with constant temperature and humidity, according to the institutional guidelines of the Istituto Superiore di Sanità Animal Care Committee. Animal experimentation was conducted in conformance with the following laws, regulations, and policies governing the care and use of laboratory animals: Italian Governing Law (D. l. 26/2014; Authorization n.19/2008-A issued March 6, 2008 by the Ministry of Health). The pharmacokinetics of NanoFEN, administered by oral or intravenous route, was investigated in mice receiving the formulation at doses corresponding to 5 mg/kg of fenretinide. The intravenous administration was carried out by injection in the tail vein of an intravenous bolus of NanoFEN dissolved in water or PureFEN suspended in a mixture of ethanol 10 % in saline as a comparison. For the oral administration the mice were gavaged the with NanoFEN dissolved in water or with the reconstituted content of the NCI capules, i.e., fenretinide (100 mg) in corn oil (704 mg) and Polysorbate 80 (60 mg) as a comparison. After the intravenous or oral treatments, a series of blood samples were taken at 15 and 30 min and at 1, 2, 4, 8, 10, 24 and 48 h. Blood was collected in heparinized tubes from the retro-orbital plexus of the mice under isoflurane anesthesia. To obtain plasma, blood samples were centrifuged at 4000 rpm for 10 min at 4 °C. The samples were stored at −20 °C until analysis. The total concentration of fenretinide in plasma of mice was determined according to a method previously described. Briefly, aliquot of 200 μl of each plasma sample was added to 400 μl of Acetonitrile (CH3CN) containing 125 μg/mL Butylated hydroxytoluene (BHT), and the mixture was vortexed and centrifuged to pellet the precipitated proteins. The recovered supernatants were analysed on a liquid chromatograph (Perkin-Elmer, Norwall, CT) fitted with a C18 (50 mm × 2.0 mm, 5 μm) reverse-phase column and a C18 precolumn (Perkin-Elmer, Milan, Italy). The mobile phase consisted of CH3CN:H2O:CH3COOH (75:2:2, v:v:v) delivered at a flow rate of 2 mL/min. Detection was carried out with a Perkin-Elmer LC95 absorbance detector at 362 nm. N-(4-ethoxyphenyl)-retinamide (EPR) was used as internal standard. For the quantitative evaluation, reference standard curves were set up in control mouse plasma with different known amounts of NanoFEN or PureFEN. The measured fenretinide concentration-vs-time data were elaborated by non-compartmental analysis (WinNonLin software v3) to obtain the main pharmacokinetic parameters of NanoFEN.

[3] = mouse, iv, CD1 female mice, 5 mg/Kg fenretinide, plasma
[4] = mouse, plasma, iv, CD1 female mice, 5 mg/Kg fenretinide

## CC1=C(/C=C/C(C)=C/C=C/C(C)=C/C(=O)Nc2ccc(O)cc2)C(C)(C)CCC1 [PureFEN, N-(4-Hydroxyphenyl) retinamide]
[1]
  solubility at 12 h: 1.71 µg/mL (≈ 4.37 µM)
[2]; CD1 female mice, 5 mg/Kg fenretinide, i.v.
  HL: 7.87 h
[2]; female, CD1, mouse, iv, Fig. 1e, single administration of 5 mg/kg, plasma
  AUC: 6570 ng·h/mL
[2]; [3]
  AUC(0-inf): 6570 ng·h/mL
  AUC(0-t): 6420 ng·h/mL
  Cmax: 4130 ng/mL
[2]; [4]
  Vd: 6.52 L/kg
  clearance: 9.57 mL/min/kg
[2]; mouse, plasma, iv, CD1 female mice, 5 mg/Kg fenretinide, i.v., read-out: Ke (converted)
  k el: 2.44e-05 s⁻¹
